The nature of the data set: DVS (dynamic vapor sorption) characterization. Type of data set: physicochemical. Particulars: for Crystalline form before and after DVS (XRPD comparison): 0-95% humidity change; for DVS weight change / Hygroscopicity: 25° C., 20.0% RH to 80.0% RH; for Hygroscopicity: DVS. The protocol: DVS refers to dynamic vapor sorption: The measurement was conducted with a Surface Measurement Systems advantage 2 at 25° C., starting from 50% humidity in humidity range of 0%-95% with a step size of 10%. The judging criterion was that the mass change of each gradient dM/dT is less than 0.002 and TMAX is less than 360 min in two circles.

[1] abbreviates: accelerated test condition, 70% humidity.
Where [2] appears, read: extreme condition, 90% humidity.
The mark [3] stands for this setting: normal storage condition, 60% humidity/25° C.

The results in this text go back to patent US20220411380A1, “ACID ADDITION SALT OF RORy REGULATOR” (JIANGSU HENGRUI MEDICINE CO., LTD., priority 2019, published 2022).

For the compound `Cl.NC(=O)C[C@H](c1ccc(S(=O)(=O)CC2CC2)cc1)c1nc2cc(-c3ccccc3OC(F)F)c(Cl)cc2[nH]1` [Crystalline form β of hydrochloride of compound of formula I], the “Crystalline form before and after DVS (XRPD comparison)” value is “crystalline form changed during DVS”; the DVS weight change stood at 1.235%; the Hygroscopicity result is “slightly hygroscopic”. The Vapor sorption result under setting [1] was “about 1.954%”. In addition, the Vapor sorption entry under setting [2] is recorded as “about 2.534%”. Besides, the Vapor sorption entry under setting [3] is listed as “about 1.755%”.
Turning to `NC(=O)C[C@H](c1ccc(S(=O)(=O)CC2CC2)cc1)c1nc2cc(-c3ccccc3OC(F)F)c(Cl)cc2[nH]1.O=C(O)/C=C\C(=O)O`, the “Crystalline form before and after DVS (XRPD comparison)” value was “crystalline form did not change during DVS”; the DVS weight change worked out at 1.731%; the Hygroscopicity entry is on record as “slightly hygroscopic”. Also, under setting [1], the Vapor sorption result is reported as “about 1.809%”. For the same compound, the Vapor sorption result under setting [2] was “about 3.077%”. For the same compound, under setting [3], the Vapor sorption result is “about 1.438%”.
